Calls of active or inactive are those of the source.
Assays:
[1] = inhibitors of PGC1a acetylation in cells, dose response, cell-based, cherry-picked samples (AID 720514); format: functional;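 further: potency may reflect raised or lowered acetylation signal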
[2] = target: Bifunctional protein GlmU (Mycobacterium tuberculosis, UniProt P9WMN3); assay: Inhibitors of Mycobacterial Glucosamine-1-phosphate acetyl transferase (GlmU). Secondary screen.; design: species or system Mycobacterium tuberculosis H37Rv
Sequence of Bifunctional protein GlmU (P9WMN3 whole entry): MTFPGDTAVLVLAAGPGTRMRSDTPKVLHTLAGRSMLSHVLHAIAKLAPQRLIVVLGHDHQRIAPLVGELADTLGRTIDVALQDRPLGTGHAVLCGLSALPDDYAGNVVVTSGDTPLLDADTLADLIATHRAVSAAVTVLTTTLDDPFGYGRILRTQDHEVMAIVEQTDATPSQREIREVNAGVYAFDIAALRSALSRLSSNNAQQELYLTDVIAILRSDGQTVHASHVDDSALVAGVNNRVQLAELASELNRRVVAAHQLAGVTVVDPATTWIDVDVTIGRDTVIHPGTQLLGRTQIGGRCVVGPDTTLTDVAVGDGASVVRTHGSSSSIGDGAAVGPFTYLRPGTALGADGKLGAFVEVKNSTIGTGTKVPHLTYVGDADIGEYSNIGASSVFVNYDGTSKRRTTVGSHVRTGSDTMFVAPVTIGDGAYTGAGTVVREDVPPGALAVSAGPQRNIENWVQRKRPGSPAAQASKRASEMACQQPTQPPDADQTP

[3] = target: T1, Polyadenylate-binding protein 1 (Homo sapiens, UniProt P11940); assay: PABP1 MLLE–PAM2 interaction inhibitors, dose response, miRNA deadenylation inhibitor project, biochemical, fluorescence polarization, Cy5-PAM2 peptide, secondary (AID 602260); format: functional; details: read-out: IC50_Mean
T1 sequence (P11940 whole entry): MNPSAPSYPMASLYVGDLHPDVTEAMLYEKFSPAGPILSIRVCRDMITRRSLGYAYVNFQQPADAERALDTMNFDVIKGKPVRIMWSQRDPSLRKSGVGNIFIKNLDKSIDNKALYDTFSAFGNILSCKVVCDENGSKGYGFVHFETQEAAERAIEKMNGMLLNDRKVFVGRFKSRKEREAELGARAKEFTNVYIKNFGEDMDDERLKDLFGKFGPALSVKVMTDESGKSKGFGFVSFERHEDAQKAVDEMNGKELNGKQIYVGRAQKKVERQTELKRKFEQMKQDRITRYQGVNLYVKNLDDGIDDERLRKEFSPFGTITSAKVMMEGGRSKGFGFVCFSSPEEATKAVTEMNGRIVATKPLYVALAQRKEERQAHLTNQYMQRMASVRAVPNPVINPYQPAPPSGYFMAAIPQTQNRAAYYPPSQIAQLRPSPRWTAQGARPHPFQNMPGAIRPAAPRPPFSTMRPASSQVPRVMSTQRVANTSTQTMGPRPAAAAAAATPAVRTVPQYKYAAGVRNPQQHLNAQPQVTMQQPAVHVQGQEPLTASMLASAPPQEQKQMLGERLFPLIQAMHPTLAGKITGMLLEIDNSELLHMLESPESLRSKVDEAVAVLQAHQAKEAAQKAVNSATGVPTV

[4] = HEK293 cell cytotoxicity, dose response, cytotoxicity control, plate reader, cherry-picked samples (AID 743446); format: functional, cell-based
[5] = inhibitors of intracellular T. cruzi replication, confirmation, NIH3T3 host cells, beta-gal luminescence (AID 2044); format: functional, cell-based;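 further: intracellular parasites grown in NIH/3T3 mouse fibroblasts as host cells; luminescent beta-galactosidase reporter signal from transgenic T. cruzi replicating inside host cells; inhibitors lower the luminescence signal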
[6] = target: Heat shock protein HSP 90-alpha (Homo sapiens, UniProt P07900); format: functional, organism-based
[7] = LGR2 antagonists, dose response, cell-based, HEK293, CRE-luciferase reporter, cherry pick, set 2 (AID 743343); format: functional;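 further: transfected cells were stimulated with diluted bursicon conditioned medium after compound addition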
[8] = MC4R antagonists, dose response, counter-screen for LGR2 antagonist project, cell-based, plate reader, cherry pick (AID 743444); format: functional;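 further: transfected HEK 293 cells stimulated with alpha-MSH peptide; potency of inhibitors of the alpha-MSH evoked signal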
[9] = HepG2 cell cytotoxicity, dose response, cytotoxicity control for Shn3 inhibitor project, CellTiter-Glo, cherry-picked (AID 624134); format: functional, cell-based
[10] = target: T1, Polyadenylate-binding protein 1; assay: PABP1 MLLE–PAM2 binding inhibitor potency, dose response, biochemical, fluorescence polarization, FITC-PAM2 peptide (AID 602259); format: functional; details: read-out: IC50_Mean
[11] = cytotoxicity toward NIH3T3 fibroblasts, dose response, counter-screen, cell-based, ATP luminescence, mouse fibroblasts (AID 2010); format: functional;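 further: cells exposed to compound for about 90 hours before reading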
[12] = target: T2, Short transient receptor potential channel 4 (Mus musculus, UniProt Q9QUQ5); assay: mouse TRPC4 channel inhibitors, dose response, cell-based, HEK293 TRPC4/mu-opioid, Fluo-4 calcium (AID 434942); format: functional;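 further: potency of inhibitors blocking the TRPC4 calcium response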
T2 sequence (Q9QUQ5 whole entry): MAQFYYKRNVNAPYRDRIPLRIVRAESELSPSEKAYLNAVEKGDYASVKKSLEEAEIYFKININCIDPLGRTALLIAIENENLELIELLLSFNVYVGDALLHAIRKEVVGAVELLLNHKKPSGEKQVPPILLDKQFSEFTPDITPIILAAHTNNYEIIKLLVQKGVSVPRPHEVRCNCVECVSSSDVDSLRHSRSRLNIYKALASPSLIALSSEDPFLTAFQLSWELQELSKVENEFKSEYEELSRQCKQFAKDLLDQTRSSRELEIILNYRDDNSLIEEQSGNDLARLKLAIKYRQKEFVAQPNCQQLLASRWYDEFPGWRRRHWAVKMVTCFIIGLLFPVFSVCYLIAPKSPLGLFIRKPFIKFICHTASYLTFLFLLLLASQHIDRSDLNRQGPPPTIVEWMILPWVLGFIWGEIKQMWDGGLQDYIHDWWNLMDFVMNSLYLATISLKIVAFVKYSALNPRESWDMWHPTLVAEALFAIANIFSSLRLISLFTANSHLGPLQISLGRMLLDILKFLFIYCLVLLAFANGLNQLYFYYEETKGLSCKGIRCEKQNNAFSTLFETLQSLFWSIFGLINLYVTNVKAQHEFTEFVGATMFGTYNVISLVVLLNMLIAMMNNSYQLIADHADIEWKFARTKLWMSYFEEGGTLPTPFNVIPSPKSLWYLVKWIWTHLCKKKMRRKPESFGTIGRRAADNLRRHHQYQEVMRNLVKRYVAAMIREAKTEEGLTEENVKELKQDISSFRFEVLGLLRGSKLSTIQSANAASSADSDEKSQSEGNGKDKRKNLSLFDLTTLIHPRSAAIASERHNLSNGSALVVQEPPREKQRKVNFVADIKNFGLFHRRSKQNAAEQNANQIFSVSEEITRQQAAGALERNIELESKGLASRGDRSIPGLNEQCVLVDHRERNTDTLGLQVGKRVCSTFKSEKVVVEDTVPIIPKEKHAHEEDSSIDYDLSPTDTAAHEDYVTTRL

[13] = target: T3, Replicative DNA helicase DnaB (Mycobacterium tuberculosis, UniProt P9WMR3); assay: DnaB intein splicing inhibitors, dose response, biochemical, cell-free fluorescence (AID 449749); format: functional
T3 sequence (P9WMR3 whole entry): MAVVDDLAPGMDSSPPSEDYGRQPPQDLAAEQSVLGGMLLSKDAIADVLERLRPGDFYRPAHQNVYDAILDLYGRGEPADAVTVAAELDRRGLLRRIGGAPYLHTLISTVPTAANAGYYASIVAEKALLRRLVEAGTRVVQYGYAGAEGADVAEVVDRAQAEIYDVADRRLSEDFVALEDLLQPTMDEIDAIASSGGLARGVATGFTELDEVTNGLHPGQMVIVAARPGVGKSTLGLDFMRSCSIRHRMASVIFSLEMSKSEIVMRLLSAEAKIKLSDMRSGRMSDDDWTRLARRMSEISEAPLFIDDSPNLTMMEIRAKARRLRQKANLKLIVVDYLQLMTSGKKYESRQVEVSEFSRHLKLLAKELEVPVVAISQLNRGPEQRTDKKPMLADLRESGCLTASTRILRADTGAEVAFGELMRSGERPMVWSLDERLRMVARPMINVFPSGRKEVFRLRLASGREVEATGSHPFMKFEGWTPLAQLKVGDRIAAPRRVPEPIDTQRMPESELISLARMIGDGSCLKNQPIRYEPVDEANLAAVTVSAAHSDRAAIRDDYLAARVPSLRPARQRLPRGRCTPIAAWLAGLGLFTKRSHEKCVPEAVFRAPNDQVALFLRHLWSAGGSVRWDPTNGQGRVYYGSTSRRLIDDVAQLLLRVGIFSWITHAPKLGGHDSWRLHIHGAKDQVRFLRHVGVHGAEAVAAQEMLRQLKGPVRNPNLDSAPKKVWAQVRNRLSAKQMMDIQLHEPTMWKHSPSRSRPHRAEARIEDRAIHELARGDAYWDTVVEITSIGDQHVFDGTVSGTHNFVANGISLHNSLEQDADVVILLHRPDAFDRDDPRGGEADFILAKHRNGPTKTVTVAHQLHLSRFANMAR

Beta Lactamase = Beta Lactamase (Pseudomonas aeruginosa, UniProt Q932Y6); assay: beta-lactamase reporter inhibitor potency, dose response, artefact control for TLR9-MyD88 binding inhibitor project, BLA reporter cells, FRET fluorescence (AID 588341); format: cell-based;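 further: cell based assay in CHO-K1 cells stably expressing beta-lactamase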
Sequence of Beta Lactamase (Q932Y6 whole entry): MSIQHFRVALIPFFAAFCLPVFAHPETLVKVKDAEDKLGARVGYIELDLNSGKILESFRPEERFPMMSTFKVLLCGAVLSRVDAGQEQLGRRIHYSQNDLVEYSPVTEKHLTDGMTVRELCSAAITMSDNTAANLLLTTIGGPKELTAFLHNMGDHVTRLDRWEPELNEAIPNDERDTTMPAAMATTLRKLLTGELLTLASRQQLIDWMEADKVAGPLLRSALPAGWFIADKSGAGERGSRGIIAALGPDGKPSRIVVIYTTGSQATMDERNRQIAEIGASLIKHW

[14] = Shn3 3'UTR reporter inhibitors, dose response, cell-based, Clone20 osteoblasts, firefly luciferase, cherry-picked (AID 624132); format: functional;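 further: firefly luciferase luminescence from reporter carrying the Shn3 3'UTR in osteoblasts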
CHO = assay: cytotoxicity in TLR9-MyD88 CHO cells, dose response, cytotoxicity control for TLR9-MyD88 binding inhibitor project, cell-based, luminescence (AID 588339); format: functional, hamster; details: Cricetulus griseus;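 further: CHO cells stably coexpressing TLR9 and MyD88 fusions from primary screen; compound exposure lasted 48 hours before viability readout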
[15] = A549 cell cytotoxicity, dose response, cytotoxicity control, plate reader, cherry-pick, antagonist series (AID 743412); format: functional, cell-based
[16] = control 3'UTR Renilla luciferase suppression, dose response, counter-screen for Shn3 inhibitor project, cell-based, Clone20-Shn3RL, cherry-picked (AID 624133); format: functional
[17] = HepG2 cell cytotoxicity, dose response, cytotoxicity control, plate reader, cherry-pick, antagonist series (AID 743416); format: functional, cell-based
Protein RecA = target: T4, Protein RecA (Mycobacterium tuberculosis, UniProt P9WHJ3); assay: Fluorescence Cell-Free Homogeneous Dose Retest to Identify Inhibitors of RecA-Intein Splicing Activity. [Related pubchem assays (depositor defined):AID2097, AID2223, AID489010, AID492950]; format: functional
T4 sequence (P9WHJ3 whole entry): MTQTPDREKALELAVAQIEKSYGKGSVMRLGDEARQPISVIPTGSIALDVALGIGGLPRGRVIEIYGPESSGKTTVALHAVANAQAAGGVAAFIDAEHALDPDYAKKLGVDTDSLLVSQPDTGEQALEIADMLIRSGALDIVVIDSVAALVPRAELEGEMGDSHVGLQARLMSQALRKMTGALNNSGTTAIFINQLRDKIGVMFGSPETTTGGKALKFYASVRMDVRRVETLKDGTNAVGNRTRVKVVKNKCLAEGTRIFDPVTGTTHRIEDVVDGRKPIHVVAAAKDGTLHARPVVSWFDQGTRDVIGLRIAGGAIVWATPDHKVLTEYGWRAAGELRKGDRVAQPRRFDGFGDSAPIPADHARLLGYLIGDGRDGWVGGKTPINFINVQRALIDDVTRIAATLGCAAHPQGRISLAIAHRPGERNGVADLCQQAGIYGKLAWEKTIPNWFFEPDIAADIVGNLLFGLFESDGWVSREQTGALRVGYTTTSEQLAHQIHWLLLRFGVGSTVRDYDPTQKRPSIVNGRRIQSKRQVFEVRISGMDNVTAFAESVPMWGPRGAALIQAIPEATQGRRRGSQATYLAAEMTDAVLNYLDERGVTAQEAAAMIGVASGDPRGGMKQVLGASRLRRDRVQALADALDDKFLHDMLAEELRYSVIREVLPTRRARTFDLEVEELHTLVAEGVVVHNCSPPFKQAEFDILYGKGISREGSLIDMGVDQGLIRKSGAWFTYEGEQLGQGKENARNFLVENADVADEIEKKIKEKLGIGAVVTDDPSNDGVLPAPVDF

[18] = target: RNA-editing ligase 1, mitochondrial (Trypanosoma brucei brucei, UniProt P86926); assay: TbREL1 ligase inhibitors, dose response, biochemical, fluorescence, Trypanosoma brucei (AID 1117295); format: functional
Sequence of RNA-editing ligase 1, mitochondrial (P86926 whole entry): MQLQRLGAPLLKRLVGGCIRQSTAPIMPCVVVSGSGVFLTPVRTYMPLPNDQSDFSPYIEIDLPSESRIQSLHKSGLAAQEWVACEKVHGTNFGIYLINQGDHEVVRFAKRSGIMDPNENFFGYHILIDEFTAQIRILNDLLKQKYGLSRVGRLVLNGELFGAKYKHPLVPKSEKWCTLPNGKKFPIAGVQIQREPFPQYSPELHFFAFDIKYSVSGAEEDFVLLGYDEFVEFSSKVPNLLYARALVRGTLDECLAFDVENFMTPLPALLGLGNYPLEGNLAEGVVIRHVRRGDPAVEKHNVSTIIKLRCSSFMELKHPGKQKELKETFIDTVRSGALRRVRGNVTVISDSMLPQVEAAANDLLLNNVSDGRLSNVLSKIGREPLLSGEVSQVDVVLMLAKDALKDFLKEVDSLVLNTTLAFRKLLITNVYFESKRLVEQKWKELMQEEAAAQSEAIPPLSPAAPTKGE

Protein Tat = Protein Tat (Human immunodeficiency virus type 1 group M subtype B (isolate HXB2)(HIV-1), UniProt P04608); format: functional;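 further: tat binding to TAR RNA read out by fluorescence polarization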
Sequence of Protein Tat (P04608 whole entry): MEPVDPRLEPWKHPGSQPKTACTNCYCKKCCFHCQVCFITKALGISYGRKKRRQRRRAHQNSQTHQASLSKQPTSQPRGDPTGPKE

CCCNC(=O)c1nnsc1[S+]([O-])c1ccc(Cl)cc1 (configuration not stated)
AC50 [1]: 12.8 µM (active) | IC50 [2]: 103 µM (active) | IC50 [3]: > 66 µM (inactive) | AC50 [4]: 16 µM (active) | EC50 [5]: 0.886 µM (active) | AC50 [6]: 2.2 µM (active) | AC50 [7]: 1.85 µM (active) | AC50 [8]: 2.29 µM (active) | AC50 [9]: 29.7 µM (active) | IC50 [10]: > 66 µM (inactive) | EC50 [11]: 2.21 µM (active) | EC50 [12]: 7.5 µM (active) | AC50 [13]: 33.8 µM (active) | IC50 (Beta Lactamase): 15.6 µM (inactive) | AC50 [14]: 1.26 µM (active) | IC50 (CHO): 1.81 µM (active) | AC50 [15]: 4.44 µM (active) | AC50 [16]: 6.98 µM (active) | AC50 [17]: 7.07 µM (active) | EC50 (Protein RecA): 24.4 µM (inconclusive)

COC(=O)C1=C(C)N(C)C(NCc2ccccc2C(F)(F)F)=NC1c1cccc(F)c1 (configuration not stated)
IC50 [18]: > 96.6 µM (inactive)

CC1CCCN(C(=O)CN2CCN(C(=O)c3ccco3)CC2)C1 (configuration not stated)
IC50 (Protein Tat): > 100 µM (active)
